From patent publication US10654838B2, “Aminopyridine compounds useful as inhibitors of protein prenylation” (INSTITUT NATIONAL DE LA SANTE ET DE LA RECHERCHE MEDICALE …, priority 2014, dated 2020)

What was measured:
HGPS MSCs [1] = assay: Osteogenic differentiation (alkaline phosphatase activity); assay type: cell-based, human; details: 7 days of osteogenic differentiation
Protocol: MSC were seeded at 600 cells per well in 384 well plate in MSC culture medium and treated as previously described. After 72 hours, MSC medium was replaced by STEMPRO osteogenic induction medium (Invitrogen) in presence or not of the different drugs. After 7 days of treatment, cells were fixed with ethanol 95% and stained by adding either a colorimetric substrate of the alkaline phosphatase, the 5-Bromo-4-chloro-3-indolyl phosphate/Nitro blue tetrazolium (NBT) (Sigma-Aldrich) or a chromogenic substrate of this enzyme (absorbance at 405 nm), the p-Nitrophenyl Phosphate (pNPP) (Pierce Biotechnology).

FPPS = target: T1, FPPS (Homo sapiens, UniProt P14324); assay: Surface plasmon resonance on immobilized FPPS; assay type: binding
T1 sequence (P14324 1-419): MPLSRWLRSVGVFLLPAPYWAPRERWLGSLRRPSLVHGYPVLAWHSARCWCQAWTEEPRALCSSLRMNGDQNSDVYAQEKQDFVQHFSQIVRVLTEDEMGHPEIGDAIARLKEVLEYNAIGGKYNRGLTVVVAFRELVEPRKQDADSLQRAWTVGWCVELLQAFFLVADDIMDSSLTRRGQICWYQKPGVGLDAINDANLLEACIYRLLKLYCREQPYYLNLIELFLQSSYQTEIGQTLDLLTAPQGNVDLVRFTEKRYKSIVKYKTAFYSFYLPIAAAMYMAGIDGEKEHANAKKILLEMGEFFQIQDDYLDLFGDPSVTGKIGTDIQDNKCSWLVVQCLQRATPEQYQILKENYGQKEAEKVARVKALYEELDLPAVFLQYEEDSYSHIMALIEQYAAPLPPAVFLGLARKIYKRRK
Protocol: Surface plasmon resonance (SPR) was measured using a BIAcore 3000 instrument at 25° C. FPPS (2800 RU) was immobilized on flow cells of a CM5-chip. The running buffer was HBSEP pH 7.4 (20 mM Hepes, 150 mM NaCl, and 0.005% P20). Regeneration was performed with 10 mM glycine, pH 3.0. […] Data were evaluated using Scrubber2 (Biologic software) and BIAeval software (BIAcore).

HMGCR = target: T2, HMGCR (Homo sapiens, UniProt P04035); assay: HMGCR colorimetric activity assay; assay type: biochemical
T2 construct: oxidation of NADPH by the catalytic subunit of HMGCR in the presence of the substrate HMG CoA; purchased Sigma-Aldrich
T2 sequence (P04035 340-888 limits assumed): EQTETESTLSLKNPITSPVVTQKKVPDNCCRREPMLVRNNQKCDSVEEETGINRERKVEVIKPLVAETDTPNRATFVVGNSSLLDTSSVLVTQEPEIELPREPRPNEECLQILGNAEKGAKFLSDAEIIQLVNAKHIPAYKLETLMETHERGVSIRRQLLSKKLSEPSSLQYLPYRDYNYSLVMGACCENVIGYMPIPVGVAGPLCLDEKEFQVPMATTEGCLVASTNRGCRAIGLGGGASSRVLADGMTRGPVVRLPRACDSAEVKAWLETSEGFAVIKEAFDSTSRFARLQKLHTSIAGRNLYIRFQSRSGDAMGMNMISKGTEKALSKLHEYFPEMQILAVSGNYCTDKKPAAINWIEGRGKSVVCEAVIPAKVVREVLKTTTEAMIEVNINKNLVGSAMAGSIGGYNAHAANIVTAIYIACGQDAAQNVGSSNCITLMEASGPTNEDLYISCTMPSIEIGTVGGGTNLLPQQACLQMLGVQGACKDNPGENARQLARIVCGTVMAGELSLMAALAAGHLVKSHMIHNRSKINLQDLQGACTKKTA
Protocol: HMGCR activity was measured using GCoA Reductase Assay Kit (Sigma-Aldrich) according to the manufacturer's protocol. The assay is based on the spectrophotometric measurement of the decrease in absorbance at 340 nm, which represents the oxidation of NADPH by the catalytic subunit of HMGCR in the presence of the substrate HMG CoA.

FT = target: T3, FT (Homo sapiens, UniProt P49354+P49356); assay: FT activity assay (Farnesyltransferase [3H] SPA); assay type: biochemical; details: concentration inducing 50% of the maximum inhibiting effect of the compound
T3 construct: Reactions were started by adding 40 μL of treated or untreated cell lysate; endogenous in cells; host or cells: HGPS MSCs (cell lysate)
Protocol: Cell pellet of HGPS MSCs were resuspended in 25 mM Tris-HCl pH 7.4, 1 mM DTT, 1 mM MgCl2, 1 EDTA, 1 mM PMSF and centrifuged at 10,000×g for 10 min at 4° C. Protein content was determined using Lowry's method. Aliquots of cell lysate containing 100 μg of total proteins were incubated with tested substances at 37° C. for 30 min.
FT activity was determined by Famesyltransferase [3H] SPA enzyme assay (Amersham Life Science, Buckinghamshire, England). Briefly, FT activity was assayed in 20 μl of assay buffer containing 50 mmol/L Hepes, 30 mmol/L MgCl2, 20 mmol/L KCl and 5 mmol/L dithiothreitol, 20 μl of [3H]-FPP (12 pmol) and 20 μl of biotin lamin B. Reactions were started by adding 40 μL of treated or untreated cell lysate and incubated for 1 hour at 37° C. Reactions were stopped by the addition of 150 μL of stop reagent containing SPA bead and counted in a scintillation counter. FT activity was expressed as pmoles of incorporated [3H]-FPP into biotin lamin-B peptide per minute per milligram of total proteins (pmol/min/mg prot). Parallel samples were assayed to evaluate the total and the nonspecific radioactivity. In all experiments enzyme assays were carried out in triplicate.

prelamin A = assay: Western immunoblotting of prelamin A; assay type: cell-based, human; details: HGPS MSCs, optimal concentration
Protocol: Whole-cell lysates of MSC were collected, separated by SDS-PAGE, and transferred onto PVPF membrane by liquid transfer method. Blots were blocked in 10% skim milk (Bio-Rad) in tween 0.1% tris-buffered saline (TTBS) 1× one hour at room temperature. The primary antibodies used were a mouse anti-lamins A/C 1:200 (Millipore, JOL2), a rabbit anti-prelamin A 1/100 (ANTOO45, Diatheva) and a β-actin 1/200000 (Sigma). Membranes were incubated during the night at 4° C. Antigen-antibody binding was detected using horseradish peroxidaseconjugated species-specific secondary antibodies (GE-Healthcare, Little Chalfont, UK) followed by enhanced chemiluminescence Western blotting detection reagents (Perkin-Elmer, Waltham, USA).

HDJ2 = assay: Western blot analysis of HDJ2 farnesylation; assay type: cell-based, human
HGPS MSCs [2] = assay: Live cell imaging (cell density); assay type: cell-based, human; details: 7 days
Protocol: HGPS MSCs were seeded at 2500 cells per well in 96-well plates and cultivated during 7 days in presence of the drugs. Cell density was monitored using an IncuCyte ZOOM microscope (Essen Bioscience). Each value corresponds to the mean of cell densities of four pictures taken in three independent wells.

## N#CC(c1ccccn1)c1ccnc(N2CCN(Cc3ccccc3F)CC2)n1 (centres unmarked) [Mono-AP1, {2-[4-(2-fluoro-benzyl)-piperazin-1-yl]-pyrimidin-4-yl}-pyridin-2-yl-acetonitrile]
HGPS MSCs [1]
  rescue of premature osteogenic differentiation (alkaline phosphatase activity): not significantly different to those observed following FTI treatment
FPPS
  direct interaction with FPPS (SPR), in words: confirmed the direct interactions
FPPS; SPR, BIAcore 3000, 25° C., read-out: Kd (M), equilibrium dissociation constant
  Kd: 2.4e-05 M
HMGCR
  IC50 (μM) HMGCR: No inhibition
FT
  IC50: 3.46 µM
Prelamin A
  prelamin A level (Western blot): increased
HDJ2
  unfarnesylated form of HDJ2: increase of the unfarnesylated form of the protein
HGPS MSCs [2]
  cytostatic effect in long term live imaging cultures: less cytostatic than the FTI tipifarnib
